Results published in patent US12440475B2, “Hodgkin lymphoma therapy” (priority 2016, dated 2025).
pIC50: −log10 of the molar value.

Legend:
[1] = system: relapsed-refractory Hodgkin lymphoma; conditions: cited from earlier work
[2] = system: Hodgkin lymphoma cell lines (KMH2, HDML2, L540, L1236 and L426); assay: IC50 comparison of bendamustine, vorinostat and EDO-S101, five cell lines; format: cell-based, human; conditions: Homo sapiens; range over all cell lines tested, including L1236-R
Protocol: (§1) • (a) Five Hodgkin lymphoma cell lines (KMH2, HDML2, L540, L1236 and L426) were cultured separately in the presence of bendamustine, vorinostat and EDO-S101 dissolved in DMSO at 37° C. L1236-derived Hodgkin lymphoma cell lines were selected as they have an acquired stable resistance to bendamustine (R100) or an ability to display continuous growth upon extended exposure to sub-lethal concentrations of bendamustine (R25, R50 and R75). A detailed description of the L1236-R Hodgkin lymphoma cell lines is disclosed in De Filippi et al, ASH 2015, Abstract. #2479. In these tests, the L1236-100R bendamustine resistant strain was used. […] Control cells were cultured in the same final concentration of DMSO. The number of viable cells was assessed at 24, 48 and 72 hours through a Countess™ automated cell counter (Invitrogen), each experiment being repeated three times and the results given being the mean of the three results±SD.

L1236-R100 = assay: Viable cell count and IC50, bendamustine-resistant cell line; format: cell-based, human; conditions: Homo sapiens; R100 cell line
Protocol: as §1

R100 = assay: Combination with Brentuximab Vedotin, % survival, R100; format: cell-based, human; conditions: Brentuximab Vedotin 0.39 μg/ml (typically 10-fold lower than IC50) with EDO-S101 1.56 μM
Protocol: 1.56 μM of EDO-S101 was administered to two Hodgkin lymphoma cell lines, the bendamustine naïve cell line L1236 and the bendamustine resistant cell line R100. In a second experiment, Brentuximab Vedotin was administered at a concentration of 3.12 μg/ml to the L1236 cell line and at a concentration of 0.39 μg/ml to the R100 cell line. Finally, in a third experiment EDO-S101 and Brentuximab Vedotin were administered in combination to each of the two cell lines at the same concentrations that they were administered in the monotherapy experiments.

Row | Compound | patients resistant to bendamustine [1] | pIC50 [2] | pIC50 (L1236-R100) | cytotoxic effect in combination with EDO-S101 (R100)
1 | Cn1c(CCCC(=O)O)nc2cc(N(CCCl)CCCl)ccc21 [bendamustine, reference compound] | about 40% | 4.77 to 4.96 | ~3.85 | –
2 | Brentuximab Vedotin | – | – | – | considerable cytotoxic effect
